{"source": "ChEMBL document CHEMBL1201862", "about": "“PubChem BioAssay data set” (2004)", "test_in_all_cases": "NCI tumour cell line growth inhibition, 48 h", "key": {"786-0": {"system": "786-0"}, "A498": {"system": "A498"}, "A549": {"system": "A549"}, "ACHN": {"system": "ACHN"}, "CAKI-1": {"system": "CAKI-1"}, "CCRF-CEM": {"system": "CCRF-CEM"}, "COLO 205": {"system": "COLO 205"}, "DLD-1": {"system": "DLD-1"}, "DMS-273": {"system": "DMS-273"}, "EKVX": {"system": "EKVX"}, "HCC 2998": {"system": "HCC 2998"}, "HCT-116": {"system": "HCT-116"}, "HCT-15": {"system": "HCT-15"}, "HL-60": {"system": "HL-60"}, "HOP-18": {"system": "HOP-18"}, "HOP-62": {"system": "HOP-62"}, "HOP-92": {"system": "HOP-92"}, "HT-29": {"system": "HT-29"}, "IGROV-1": {"system": "IGROV-1"}, "K562": {"system": "K562"}, "KM-20L2": {"system": "KM-20L2"}, "KM12": {"system": "KM12"}, "LOX IMVI": {"system": "LOX IMVI"}, "LXFL 529": {"system": "LXFL 529"}, "M14": {"system": "M14"}, "M19-MEL": {"system": "M19-MEL"}, "MOLT-4": {"system": "MOLT-4"}, "Malme-3M": {"system": "Malme-3M"}, "NCI-H226": {"system": "NCI-H226"}, "NCI-H23": {"system": "NCI-H23"}, "NCI-H460": {"system": "NCI-H460"}, "NCI-H522": {"system": "NCI-H522"}, "OVCAR-3": {"system": "OVCAR-3"}, "OVCAR-4": {"system": "OVCAR-4"}, "OVCAR-5": {"system": "OVCAR-5"}, "OVCAR-8": {"system": "OVCAR-8"}, "RPMI-8226": {"system": "RPMI-8226"}, "RXF 393": {"system": "RXF 393"}, "SF-268": {"system": "SF-268"}, "SF-295": {"system": "SF-295"}, "SF-539": {"system": "SF-539"}, "SK-MEL-28": {"system": "SK-MEL-28"}, "SK-MEL-2": {"system": "SK-MEL-2"}, "SK-MEL-5": {"system": "SK-MEL-5"}, "SK-OV-3": {"system": "SK-OV-3"}, "SN12C": {"system": "SN12C"}, "SNB-19": {"system": "SNB-19"}, "SNB-75": {"system": "SNB-75"}, "SNB-78": {"system": "SNB-78"}, "SR": {"system": "SR"}, "SW-620": {"system": "SW-620"}, "TK-10": {"system": "TK-10"}, "U-251": {"system": "U-251"}, "UACC-257": {"system": "UACC-257"}, "UACC-62": {"system": "UACC-62"}, "UO-31": {"system": "UO-31"}, "XF498": {"system": "XF498"}}, "note": "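Growth conditions: 96-well plates. Treatment: test compound, 48 hours, 5 concentrations. Analysis: linear interpolation between bracketing concentrations; unreached endpoints set to highest concentration. At the GI50, growth is halved.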 The source made the active and inactive calls. No stated cut-off is given here; in the data, active = GI50 up to about 1.1 µM and inactive = higher.", "data": [{"smiles": "COc1ccc(C(C)Nc2cc(OC)c(OC)c(OC)c2)cc1", "note": "(configuration not stated)", "values": [{"measurement": "GI50", "setting": "786-0", "value": "6.65 µM (inactive)"}, {"measurement": "GI50", "setting": "A498", "value": "4.45 µM (inactive)"}, {"measurement": "GI50", "setting": "A549", "value": "5.62 µM (inactive)"}, {"measurement": "GI50", "setting": "ACHN", "value": "8.87 µM (inactive)"}, {"measurement": "GI50", "setting": "CAKI-1", "value": "4.23 µM (inactive)"}, {"measurement": "GI50", "setting": "CCRF-CEM", "value": "3.29 µM (inactive)"}, {"measurement": "GI50", "setting": "COLO 205", "value": "2.48 µM (inactive)"}, {"measurement": "GI50", "setting": "DLD-1", "value": "5.81 µM (inactive)"}, {"measurement": "GI50", "setting": "DMS-273", "value": "1.82 µM (inactive)"}, {"measurement": "GI50", "setting": "EKVX", "value": "> 24.9 µM (inactive)"}, {"measurement": "GI50", "setting": "HCC 2998", "value": "10.3 µM (inactive)"}, {"measurement": "GI50", "setting": "HCT-116", "value": "3.58 µM (inactive)"}, {"measurement": "GI50", "setting": "HCT-15", "value": 3, "unit": "µM"}, {"measurement": "GI50", "setting": "HL-60", "value": "1.94 µM (inactive)"}, {"measurement": "GI50", "setting": "HOP-18", "value": "> 100 µM (inactive)"}, {"measurement": "GI50", "setting": "HOP-62", "value": "2.88 µM (inactive)"}, {"measurement": "GI50", "setting": "HOP-92", "value": "1.56 µM (inactive)"}, {"measurement": "GI50", "setting": "HT-29", "value": "3.57 µM (inactive)"}, {"measurement": "GI50", "setting": "IGROV-1", "value": "7.13 µM (inactive)"}, {"measurement": "GI50", "setting": "K562", "value": "2.19 µM (inactive)"}, {"measurement": "GI50", "setting": "KM-20L2", "value": "2.57 µM (inactive)"}, {"measurement": "GI50", "setting": "KM12", "value": "2.63 µM (inactive)"}, {"measurement": "GI50", "setting": "LOX IMVI", "value": "10.9 µM (inactive)"}, {"measurement": "GI50", "setting": "LXFL 529", "value": "6.38 µM (inactive)"}, {"measurement": "GI50", "setting": "M14", "value": "6.21 µM (inactive)"}, {"measurement": "GI50", "setting": "M19-MEL", "value": "4.75 µM (inactive)"}, {"measurement": "GI50", "setting": "MOLT-4", "value": "4.61 µM (inactive)"}, {"measurement": "GI50", "setting": "Malme-3M", "value": "3.68 µM (inactive)"}, {"measurement": "GI50", "setting": "NCI-H226", "value": "14.8 µM (inactive)"}, {"measurement": "GI50", "setting": "NCI-H23", "value": "3.72 µM (inactive)"}, {"measurement": "GI50", "setting": "NCI-H460", "value": "3.03 µM (inactive)"}, {"measurement": "GI50", "setting": "NCI-H522", "value": "2.51 µM (inactive)"}, {"measurement": "GI50", "setting": "OVCAR-3", "value": "2.69 µM (inactive)"}, {"measurement": "GI50", "setting": "OVCAR-4", "value": "6.43 µM (inactive)"}, {"measurement": "GI50", "setting": "OVCAR-5", "value": "29.5 µM (inactive)"}, {"measurement": "GI50", "setting": "OVCAR-8", "value": "7.16 µM (inactive)"}, {"measurement": "GI50", "setting": "RPMI-8226", "value": "3.86 µM (inactive)"}, {"measurement": "GI50", "setting": "RXF 393", "value": "3.27 µM (inactive)"}, {"measurement": "GI50", "setting": "SF-268", "value": "2.9 µM (inactive)"}, {"measurement": "GI50", "setting": "SF-295", "value": "2.3 µM (inactive)"}, {"measurement": "GI50", "setting": "SF-539", "value": "3.1 µM (inactive)"}, {"measurement": "GI50", "setting": "SK-MEL-28", "value": "3.24 µM (inactive)"}, {"measurement": "GI50", "setting": "SK-MEL-2", "value": "3.01 µM (inactive)"}, {"measurement": "GI50", "setting": "SK-MEL-5", "value": "2.54 µM (inactive)"}, {"measurement": "GI50", "setting": "SK-OV-3", "value": "4.4 µM (inactive)"}, {"measurement": "GI50", "setting": "SN12C", "value": "7.71 µM (inactive)"}, {"measurement": "GI50", "setting": "SNB-19", "value": "> 25.2 µM (inactive)"}, {"measurement": "GI50", "setting": "SNB-75", "value": "5.75 µM (inactive)"}, {"measurement": "GI50", "setting": "SNB-78", "value": "4.08 µM (inactive)"}, {"measurement": "GI50", "setting": "SR", "value": "3.1 µM (inactive)"}, {"measurement": "GI50", "setting": "SW-620", "value": "2.88 µM (inactive)"}, {"measurement": "GI50", "setting": "TK-10", "value": "> 29.7 µM (inactive)"}, {"measurement": "GI50", "setting": "U-251", "value": "2.75 µM (inactive)"}, {"measurement": "GI50", "setting": "UACC-257", "value": "3.27 µM (inactive)"}, {"measurement": "GI50", "setting": "UACC-62", "value": "2.91 µM (inactive)"}, {"measurement": "GI50", "setting": "UO-31", "value": "10.5 µM (inactive)"}, {"measurement": "GI50", "setting": "XF498", "value": "6.89 µM (inactive)"}]}]}
